Test results published in patent publication US12565522B2, “Micropeptide HMMW and application thereof” (NANJING ANJI BIOTECHNOLOGY CO., LTD., priority 2019, dated 2026).
No end group written: not given here.

Assays:
Format in all cases: cell-based, human
Conditions in all cases: 24 h
[1] = system: A431 cells of skin cancer; test: transwell migration test
[2] = system: A549 cells of lung cancer; test: transwell migration test
[3] = system: MDA-MB-231 cells of breast cancer; test: transwell migration test
[4] = system: MGC803 cells of stomach cancer; test: transwell migration test
[5] = system: SW579 cells of thyroid cancer; test: transwell migration test
[6] = system: TE13 cells of esophageal squamous cell carcinoma; test: transwell migration test
[7] = system: UOK262 cells of kidney cancer; test: transwell migration test
[8] = system: A431 cells of skin cancer; test: Matrigel transwell invasion test
Procedure, shortened: (§1)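 Human cells from log phase in serum-free medium, 1×10^5 cells/mL, seeded onto Matrigel-coated (1:3 diluted) transwell inserts with peptides HMMW I–IX at 0, 1, 4 or 16 μM; 10% FBS medium below as attractant, 24 h at 37 °C. Crystal-violet-stained invaded cells counted in four fields; inhibition rate versus 0 μM, mean±SD of three runs.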

[9] = system: A549 cells of lung cancer; test: Matrigel transwell invasion test
Procedure, shortened: as §1

[10] = system: MDA-MB-231 cells of breast cancer; test: Matrigel transwell invasion test
Procedure, shortened: as §1

[11] = system: MGC803 cells of stomach cancer; test: Matrigel transwell invasion test
Procedure, shortened: as §1

[12] = system: SCC4 cells of head and neck cancer; test: Matrigel transwell invasion test
Procedure, shortened: as §1

[13] = system: SW579 cells of thyroid cancer; test: Matrigel transwell invasion test
Procedure, shortened: as §1

[14] = system: TE13 cells of esophageal squamous cell carcinoma; test: Matrigel transwell invasion test
Procedure, shortened: as §1

[15] = system: UOK262 cells of kidney cancer; test: Matrigel transwell invasion test
Procedure, shortened: as §1

## MGSTGVPGFSPRRSSVEAKMQSTSCSVRKSSTVTAWPAVVLLLSWGQRRGG-OH [HMMW-VII]
[1]; dose 1 μM
  migration inhibition rate: 32.10%
[1]; dose 4 μM
  migration inhibition rate: 52.22%
[1]; dose 16 μM
  migration inhibition rate: 70.11%
[2]; dose 1 μM
  migration inhibition rate: 35.01%
[2]; dose 4 μM
  migration inhibition rate: 53.91%
[2]; dose 16 μM
  migration inhibition rate: 71.36%
[3]; dose 1 μM
  migration inhibition rate: 28.27%
[3]; dose 4 μM
  migration inhibition rate: 50.14%
[3]; dose 16 μM
  migration inhibition rate: 72.15%
[4]; dose 1 μM
  migration inhibition rate: 26.60%
[4]; dose 4 μM
  migration inhibition rate: 51.31%
[4]; dose 16 μM
  migration inhibition rate: 70.62%
[5]; dose 1 μM
  migration inhibition rate: 20.80%
[5]; dose 4 μM
  migration inhibition rate: 53.13%
[5]; dose 16 μM
  migration inhibition rate: 70.92%
[6]; dose 1 μM
  migration inhibition rate: 23.64%
[6]; dose 4 μM
  migration inhibition rate: 41.21%
[6]; dose 16 μM
  migration inhibition rate: 63.30%
[7]; dose 1 μM
  migration inhibition rate: 19.24%
[7]; dose 4 μM
  migration inhibition rate: 40.21%
[7]; dose 16 μM
  migration inhibition rate: 72.40%
[8]; dose 1 μM
  invasion inhibition rate: 34.70%
[8]; dose 4 μM
  invasion inhibition rate: 55.51%
[8]; dose 16 μM
  invasion inhibition rate: 69.24%
[9]; dose 1 μM
  invasion inhibition rate: 32.22%
[9]; dose 4 μM
  invasion inhibition rate: 52.42%
[9]; dose 16 μM
  invasion inhibition rate: 64.02%
[10]; dose 1 μM
  invasion inhibition rate: 27.91%
[10]; dose 4 μM
  invasion inhibition rate: 49.55%
[10]; dose 16 μM
  invasion inhibition rate: 74.32%
[11]; dose 1 μM
  invasion inhibition rate: 29.50%
[11]; dose 4 μM
  invasion inhibition rate: 54.34%
[11]; dose 16 μM
  invasion inhibition rate: 69.57%
[12]; dose 1 μM
  invasion inhibition rate: 19.70%
[12]; dose 4 μM
  invasion inhibition rate: 43.11%
[12]; dose 16 μM
  invasion inhibition rate: 70.84%
[13]; dose 1 μM
  invasion inhibition rate: 20.11%
[13]; dose 4 μM
  invasion inhibition rate: 43.72%
[13]; dose 16 μM
  invasion inhibition rate: 63.71%
[14]; dose 1 μM
  invasion inhibition rate: 25.11%
[14]; dose 4 μM
  invasion inhibition rate: 45.36%
[14]; dose 16 μM
  invasion inhibition rate: 67.52%
[15]; dose 1 μM
  invasion inhibition rate: 36.74%
[15]; dose 4 μM
  invasion inhibition rate: 56.26%
[15]; dose 16 μM
  invasion inhibition rate: 67.62%
